Data reported in patent EP4813403A1, “USE OF GLP-1R/GIPR DOUBLE-TARGET AGONIST IN PREPARING ANIMAL DRUG” (Hangzhou Zhongmeihuadong Pharmaceutical Co., Ltd., priority 2023, dated 2025).

How the values were obtained:
[1] = Pharmacokinetics following single administration in SD rats; settings: male, Sprague-Dawley, rat, in vivo, sc
Procedure: The compound was administrated to male SD rats (230-268 g, n=3) at a dose of 50.0 nmol/kg (s.c.) or 25.0 nmol/kg (i.v.). […] 30.0 μL of thawed plasma sample was taken. 150 μL of acetonitrile solution (containing 5 ng·mL^-1 Verapamil , 50 ng·mL^-1 Glibenclamide, 200 ng·mL^-1 Tolbutamide and 200 ng·mL^-1 Diclofenac) were added to precipitate protein. The mixture was vortexed for 5 minutes, and centrifuged at 3700 rpm for 8 minutes. 70.0 μL of the supernatant was taken, into which 70.0 μL of 0.5% aqueous formic acid solution was added. The mixture was vortexed for 5 minutes. 15 μL of the mixture solution was sampled and injected into the LC-MS/MS to determine the drug concentration in plasma. 20.0 μL of thawed plasma sample was taken. 60 μL of acetonitrile solution (containing 5 ng·mL^-1 Verapamil, 50 ng·mL^-1 Glibenclamide, 200 ng·mL^-1 Tolbutamide and 200 ng·mL^-1 Diclofenac) were added to precipitate protein. […] The mixture was vortexed for 10 minutes. 10.0 μL of the mixture solution was sampled and injected into the LC-MS/MS to determine the drug concentration in plasma. 30.0 μL of thawed plasma sample was taken. 150 μL of acetonitrile solution (containing 5 ng·mL^-1 Verapamil, 50 ng·mL^-1 Glibenclamide, 200 ng·mL^-1 Tolbutamide and 200 ng·mL^-1 Diclofenac) were added to precipitate protein. The mixture was vortexed for 5 minutes, and centrifuged at 3700 rpm for 8 minutes. 70.0 μL of the supernatant was taken, into which 70.0 μL of 0.5% aqueous formic acid solution was added. The mixture was vortexed for 5 minutes. 10.0 μL of the mixture solution was sampled and injected into the LC-MS/MS to determine the drug concentration in plasma. […] Table 5 Pharmacokinetic Parameters after Subcutaneous Injection of Different Polypeptide Compounds to Rats

db/db mice = experiment: Pharmacodynamic effects in db/db mice, single subcutaneous administration (blood glucose); format: in vivo; settings: single s.c. 10 nmol/kg, Group 2, longest time with p<0.05 vs. vehicle
Procedure: In this study, 8-9 week old male db/db mice were used. The db/db mice were placed in an individual ventilated cage (IVC) facility with a controlled temperature (20-26°C) and humidity (40-70%) and a controlled 12h:12 h light-dark cycle. The mice can receive food and water ad libitum. Blood was sampled at the tail tip, and the random base blood glucose was measured by a Roche blood glucose meter. The mice were randomly divided into groups according to the random initial fasting blood glucose and initial body weight (n=6/group), and each group had similar body weight and blood glucose.
After a single subcutaneous administration, the random base blood glucoses were recorded at the set time point (0 to 120 hours, the recording of the random base blood glucose was stopped until there was no difference between the random base blood glucose of the compound and that of the vehicle group), and the daily body weight and food intake were also recorded. The data results were statistically analyzed using GraphPad Prism8, and the statistical differences among the groups were analyzed following a T-Test. Significant differences were identified at p<0.05.
Hypoglycemic Duration: the longest time during which the random base blood glucose of the compound has a significant difference (p<0.05) vs. the vehicle group. Table 13. Hypoglycemic Duration of the Compounds

human GIP Receptor = target: T1, human GIP Receptor (Homo sapiens, UniProt P48546); experiment: In vitro binding activity to human GIP receptor ([125I]GIP displacement, crude cell membranes); settings: ratio of the Ki value of the endogenous ligand to the Ki value of the test compound; larger ratio = stronger binding
T1 construct: expressed in transfected cells
T1 sequence (P48546 22-466): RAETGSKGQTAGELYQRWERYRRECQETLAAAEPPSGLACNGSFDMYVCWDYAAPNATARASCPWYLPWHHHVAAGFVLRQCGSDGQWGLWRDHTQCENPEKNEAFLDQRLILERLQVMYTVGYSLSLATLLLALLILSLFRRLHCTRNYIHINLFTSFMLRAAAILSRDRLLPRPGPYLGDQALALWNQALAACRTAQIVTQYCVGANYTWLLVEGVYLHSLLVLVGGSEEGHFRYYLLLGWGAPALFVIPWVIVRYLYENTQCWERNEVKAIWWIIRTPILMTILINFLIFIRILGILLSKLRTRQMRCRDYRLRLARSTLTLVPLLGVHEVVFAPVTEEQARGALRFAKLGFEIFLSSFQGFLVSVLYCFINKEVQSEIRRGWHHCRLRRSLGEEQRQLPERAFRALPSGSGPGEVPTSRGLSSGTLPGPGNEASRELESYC
Procedure: (§1) 89 µL of membrane dissolved in binding buffer (50 mM Hepes, pH 7.4, 5 mM MgCl2 , 5 mM EDTA, 0.005% TWEEN, 0.005% HSA) was transferred to a 96-well test plate (5 µg/well). The compound was serially diluted in DMSO, and then, 1 µL of the diluted compound or 100% DMSO was added to the test plate containing the membrane solution. 10 µL of [^125I] […] The test plate was left at room temperature for 90 minutes. The membrane complexes were harvested into a GF/B plate pre-coated with 0.5% PEI by using a Cell Harvester, and washed for 3 times with 500 µL of pre-cooled elution buffer (50 mM Hepes, pH 7.4, 500 mM NaCl) at 4°C. After drying at 37°C for 2 hours, 50 µL of scintillation fluid was added to each well. The plate was read with a MicroBeta2 scintillation counter after sealing and settling for at least 1 hour so as to determine the membrane bound radioligand level.
hGIP and the compound of the present invention were dissolved in DMSO and stored at -80°C. 98 µL of membrane dissolved in binding buffer (50 mM HEPES pH 7.4, 5 mM MgCl2, 1 mM CaCl2, 0.1% BSA, 0.005% Tween-20) was transferred to a 96-well test plate (15 µg/well). The compound was serially diluted in DMSO, and then, 2 µL of the diluted compounds or 100% DMSO was added to the test plate containing the membrane solution. […] The test plate was left at room temperature for 90 minutes. The membrane complexes were harvested into a GF/B plate pre-coated with 0.5% PEI by using a Cell Harvester, and washed for 3 times with 500 µL of pre-cooled elution buffer (50 mM Tris-HCl pH 7.4, 125 mM NaCl) at 4°C. After drying at 37°C for 2 hours, 50 µL of scintillation fluid was added to each well. The plate was read with a MicroBeta2 scintillation counter after sealing and settling for at least 1 hour so as to determine the membrane bound radioligand level.
The IC50 concentration was converted to Ki (Ki was the inhibition constant) using the Cheng-Prusoff equation. Table 1. Receptor Binding Affinity, Ki Ratio

human GLP-1R = human GLP-1R (Homo sapiens, UniProt P43220); experiment: In vitro binding activity to human GLP-1 receptor ([125I]GLP-1 displacement, crude cell membranes); parameters: expressed in transfected cells; settings: ratio of the Ki value of the endogenous ligand to the Ki value of the test compound; larger ratio = stronger binding
Procedure: as §1
The IC50 concentration was converted to Ki (Ki was the inhibition constant) using the Cheng-Prusoff equation.

Sequence of human GLP-1R (P43220 24-463): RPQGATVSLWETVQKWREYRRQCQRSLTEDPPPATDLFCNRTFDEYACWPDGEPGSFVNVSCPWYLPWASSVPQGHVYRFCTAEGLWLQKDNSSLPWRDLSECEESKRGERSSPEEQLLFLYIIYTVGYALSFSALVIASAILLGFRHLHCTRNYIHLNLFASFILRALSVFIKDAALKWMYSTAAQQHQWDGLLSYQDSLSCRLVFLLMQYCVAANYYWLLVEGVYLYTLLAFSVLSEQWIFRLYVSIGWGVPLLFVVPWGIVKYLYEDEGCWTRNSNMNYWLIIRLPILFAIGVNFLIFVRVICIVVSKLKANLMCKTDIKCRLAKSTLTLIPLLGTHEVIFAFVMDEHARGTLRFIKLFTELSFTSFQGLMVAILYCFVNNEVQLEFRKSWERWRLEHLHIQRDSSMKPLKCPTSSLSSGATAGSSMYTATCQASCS

| SMILES | Tmax [1] | half-life [1] | Hypoglycemic Duration (db/db mice) | GIPR Ki ratio (human GIP Receptor) | GLP-1R Ki ratio (human GLP-1R) |
| --- | --- | --- | --- | --- | --- |
| CC[C@H](C)[C@H](NC(=O)C(C)(C)NC(=O)[C@H](Cc1ccc(O)cc1)NC(=O)[C@H](CC(=O)O)NC(=O)[C@H](CO)NC(=O)[C@@H](NC(=O)C(C)(Cc1ccccc1)NC(=O)[C@@H](NC(=O)CNC(=O)[C@H](CCC(=O)O)NC(=O)C(C)(C)NC(=O)[C@@H](N)Cc1ccc(O)cc1)[C@@H](C)O)[C@@H](C)O)C(=O)NC(C)(C)C(=O)N[C@@H](CC(C)C)C(=O)N[C@@H](CC(=O)O)C(=O)N[C@@H](CCCCN)C(=O)N[C@@H](CCC(N)=O)C(=O)N[C@@H](C)C(=O)N[C@@H](CCC(N)=O)C(=O)N[C@@H](C)C(=O)N[C@@H](CCC(=O)O)C(=O)N[C@@H](Cc1ccccc1)C(=O)N[C@H](C(=O)N[C@@H](CCCCNC(=O)COCCOCCNC(=O)COCCOCCNC(=O)CC[C@H](NC(=O)CCCCCCCCCCCCCCCCCCC(=O)O)C(=O)O)C(=O)N[C@@H](Cc1c[nH]c2ccccc12)C(=O)N[C@@H](CC(C)C)C(=O)N[C@@H](CC(C)C)C(=O)N[C@@H](CCCCN)C(=O)NCC(=O)NCC(=O)N1CCC[C@H]1C(=O)N[C@@H](CO)C(=O)N[C@@H](CO)C(=O)NCC(=O)N[C@@H](C)C(=O)N1CCC[C@H]1C(=O)N1CCC[C@H]1C(=O)N1CCC[C@H]1C(=O)N[C@@H](CO)C(=O)N[C@@H](CCCCN)C(N)=O)C(C)C (stereo partly shown) [Compound P013] | 24 h | 15 ± 0.737 h | 72 h | 0.14 | 0.28 |
| CC[C@H](C)[C@H](NC(=O)C(C)(C)NC(=O)[C@H](Cc1ccc(O)cc1)NC(=O)[C@H](CC(=O)O)NC(=O)[C@H](CO)NC(=O)[C@@H](NC(=O)C(C)(Cc1ccccc1)NC(=O)[C@@H](NC(=O)CNC(=O)[C@H](CCC(=O)O)NC(=O)C(C)(C)NC(=O)[C@@H](N)Cc1ccc(O)cc1)[C@@H](C)O)[C@@H](C)O)C(=O)NC(C)(C)C(=O)N[C@@H](CC(C)C)C(=O)N[C@@H](CC(=O)O)C(=O)N[C@@H](CCCCN)C(=O)N[C@@H](CCC(N)=O)C(=O)N[C@@H](C)C(=O)N[C@@H](CCC(N)=O)C(=O)N[C@@H](C)C(=O)N[C@@H](CCC(=O)O)C(=O)N[C@@H](Cc1ccccc1)C(=O)N[C@H](C(=O)N[C@@H](CCCCN)C(=O)N[C@@H](Cc1c[nH]c2ccccc12)C(=O)N[C@@H](CC(C)C)C(=O)N[C@@H](CC(C)C)C(=O)N[C@@H](CCCCNC(=O)COCCOCCNC(=O)COCCOCCNC(=O)CC[C@H](NC(=O)CC[C@H](NC(=O)CC[C@H](NC(=O)CCCCCCCCCCCCCCCCC(=O)O)C(=O)O)C(=O)O)C(=O)O)C(=O)NCC(=O)NCC(=O)N1CCC[C@H]1C(=O)N[C@@H](CO)C(=O)N[C@@H](CO)C(=O)NCC(=O)N[C@@H](C)C(=O)N1CCC[C@H]1C(=O)N1CCC[C@H]1C(=O)N1CCC[C@H]1C(=O)N[C@@H](CO)C(=O)N[C@@H](CCCCN)C(N)=O)C(C)C (stereo partly shown) [Compound P018] | 24 h | 18.3 ± 6.77 h | 48 h | 0.05 | 1.45 |
